Experimental data reported in paper PMC11628833 (Acta Pharmaceutica Sinica. B, 2024).

Assays:
Type in all cases: cell-based
TLR3 = target: T1, TLR3 (Homo sapiens, UniProt O15455); assay: Specificity test in HEK-Blue TLR-overexpressing cells, TLR3; conditions: 5 μM S-1, HEK-Blue TLR cells, TLR-specific agonist
T1 sequence (O15455 24-904): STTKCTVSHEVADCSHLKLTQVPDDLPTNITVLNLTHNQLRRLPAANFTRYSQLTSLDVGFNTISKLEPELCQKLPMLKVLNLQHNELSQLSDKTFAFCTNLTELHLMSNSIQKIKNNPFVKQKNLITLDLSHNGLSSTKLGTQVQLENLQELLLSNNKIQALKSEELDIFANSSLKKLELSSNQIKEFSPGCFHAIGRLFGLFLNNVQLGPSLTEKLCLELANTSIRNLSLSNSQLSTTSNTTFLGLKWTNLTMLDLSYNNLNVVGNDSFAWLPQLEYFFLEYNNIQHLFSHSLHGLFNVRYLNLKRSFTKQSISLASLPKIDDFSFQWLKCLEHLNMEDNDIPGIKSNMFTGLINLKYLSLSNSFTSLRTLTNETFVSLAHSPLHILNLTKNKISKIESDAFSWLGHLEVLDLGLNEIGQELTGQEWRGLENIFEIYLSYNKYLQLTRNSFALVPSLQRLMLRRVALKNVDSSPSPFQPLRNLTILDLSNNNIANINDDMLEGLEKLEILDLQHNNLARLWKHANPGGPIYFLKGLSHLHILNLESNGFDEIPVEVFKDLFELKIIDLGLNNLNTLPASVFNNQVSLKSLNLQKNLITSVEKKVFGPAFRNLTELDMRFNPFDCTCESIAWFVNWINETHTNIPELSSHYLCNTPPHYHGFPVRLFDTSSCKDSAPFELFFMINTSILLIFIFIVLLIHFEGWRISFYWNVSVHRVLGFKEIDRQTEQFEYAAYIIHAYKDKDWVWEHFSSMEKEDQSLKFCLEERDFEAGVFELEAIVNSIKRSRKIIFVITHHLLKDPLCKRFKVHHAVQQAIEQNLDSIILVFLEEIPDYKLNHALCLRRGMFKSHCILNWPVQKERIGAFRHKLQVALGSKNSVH

hTLR8 = target: T2, hTLR8 (Homo sapiens, UniProt Q9NR97); assay: SEAP reporter assay in HEK-Blue hTLR8 cells
T2 sequence (Q9NR97 27-1041): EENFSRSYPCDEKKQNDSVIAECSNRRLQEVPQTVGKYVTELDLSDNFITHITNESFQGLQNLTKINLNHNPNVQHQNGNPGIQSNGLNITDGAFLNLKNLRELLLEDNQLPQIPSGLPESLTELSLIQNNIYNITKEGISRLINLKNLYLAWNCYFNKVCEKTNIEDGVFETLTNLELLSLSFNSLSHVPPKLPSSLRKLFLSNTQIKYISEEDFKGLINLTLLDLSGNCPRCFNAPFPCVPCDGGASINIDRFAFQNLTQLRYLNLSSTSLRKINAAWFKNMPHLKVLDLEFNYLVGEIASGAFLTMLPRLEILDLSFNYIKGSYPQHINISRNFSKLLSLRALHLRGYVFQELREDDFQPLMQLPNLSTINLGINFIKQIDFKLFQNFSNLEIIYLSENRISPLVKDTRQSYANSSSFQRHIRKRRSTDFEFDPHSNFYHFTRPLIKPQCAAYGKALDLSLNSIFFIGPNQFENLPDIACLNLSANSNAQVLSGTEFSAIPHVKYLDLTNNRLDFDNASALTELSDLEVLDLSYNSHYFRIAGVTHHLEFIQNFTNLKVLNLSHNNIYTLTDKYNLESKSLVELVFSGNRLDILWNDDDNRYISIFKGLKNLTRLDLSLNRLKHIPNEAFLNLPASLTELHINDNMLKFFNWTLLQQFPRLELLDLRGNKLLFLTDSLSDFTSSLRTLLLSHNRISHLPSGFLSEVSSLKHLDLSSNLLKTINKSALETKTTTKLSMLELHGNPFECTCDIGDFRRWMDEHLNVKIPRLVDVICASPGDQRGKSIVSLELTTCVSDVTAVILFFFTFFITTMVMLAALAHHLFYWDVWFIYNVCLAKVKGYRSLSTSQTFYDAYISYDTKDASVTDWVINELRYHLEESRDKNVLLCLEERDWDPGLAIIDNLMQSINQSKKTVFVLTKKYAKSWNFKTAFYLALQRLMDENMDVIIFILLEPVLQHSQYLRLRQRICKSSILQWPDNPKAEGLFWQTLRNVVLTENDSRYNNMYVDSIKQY

TLR5 = TLR5 (Homo sapiens, UniProt O60602); assay: Specificity test in HEK-Blue TLR-overexpressing cells, TLR5; conditions: 5 μM S-1, HEK-Blue TLR cells, TLR-specific agonist
Chain of TLR5 (O60602 21-858): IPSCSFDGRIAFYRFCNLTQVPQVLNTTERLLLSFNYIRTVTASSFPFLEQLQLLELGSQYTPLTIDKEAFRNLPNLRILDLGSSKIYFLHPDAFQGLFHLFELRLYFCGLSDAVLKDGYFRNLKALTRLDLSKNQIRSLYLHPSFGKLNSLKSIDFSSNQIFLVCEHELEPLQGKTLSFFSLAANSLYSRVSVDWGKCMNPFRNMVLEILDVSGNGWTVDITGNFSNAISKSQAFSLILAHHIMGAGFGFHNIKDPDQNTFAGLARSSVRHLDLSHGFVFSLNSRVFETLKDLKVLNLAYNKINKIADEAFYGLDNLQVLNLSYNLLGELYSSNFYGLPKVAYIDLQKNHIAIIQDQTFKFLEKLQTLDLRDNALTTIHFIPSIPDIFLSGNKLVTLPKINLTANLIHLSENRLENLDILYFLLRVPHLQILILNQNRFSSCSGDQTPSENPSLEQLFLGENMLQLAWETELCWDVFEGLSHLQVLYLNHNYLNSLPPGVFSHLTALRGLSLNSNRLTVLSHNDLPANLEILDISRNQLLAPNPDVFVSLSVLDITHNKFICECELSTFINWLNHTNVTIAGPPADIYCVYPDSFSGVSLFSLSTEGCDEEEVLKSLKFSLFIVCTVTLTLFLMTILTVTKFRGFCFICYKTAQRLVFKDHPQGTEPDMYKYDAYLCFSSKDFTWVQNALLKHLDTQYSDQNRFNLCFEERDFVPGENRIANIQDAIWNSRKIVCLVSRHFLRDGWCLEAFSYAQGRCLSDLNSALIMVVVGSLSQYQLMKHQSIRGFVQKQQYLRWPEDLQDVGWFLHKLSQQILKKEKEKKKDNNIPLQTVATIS

inhibition of TLR3 (TLR3): no obvious inhibition
IC50 (hTLR8): 130 ± 30 nM
inhibition of TLR5 (TLR5): no obvious inhibition
Compound: O=C(c1ccc(Cl)cc1)N1CCN(c2ccc([N+](=O)[O-])c3ncccc23)CC1 [Compound S1]
